Oligonucleotides are written 5' to 3', each unit as a sugar letter and its base; * is a phosphorothioate linkage, no mark a phosphodiester; rarer units and linkages stand in square brackets, end groups in braces. Plain capitals give the bases only. d = 2'-deoxy (DNA)
Test system: Cy5 5'-labelled acpP target RNA (40 nt)
Assay: Electrophoretic mobility shift assay (EMSA)
Assay type: binding, Salmonella enterica
Details: unconjugated ASO; ASO:RNA 1.25:1 and 2.5:1, 30 min RT, native 15 % PAGE
Description: The electrophoretic mobility shift (EMSA) assay was performed with a Cy5 5’-labelled RNA (purchased from Eurofins) encompassing the sequence spanning nucleotides −20 to +20 of acpP relative to the translation start codon. For annealing, TM buffer (10 mM Tris-HCl, 50 mM MgCl2) was used. First, 20 µM RNA was denatured by incubation at 95 °C for 5 min followed by placement on ice. Then 1 µL of RNA was added to PCR tubes containing 8 µL of water. To this 1 µL of ASOs at the indicated concentrations (25 µM or 50 µM) were added to adjust ASO:RNA ratios of 1.25:1 and 2.5:1. As untreated negative control water was added instead of ASO, while a scrambled PNA sequence served as sequence-unspecific negative control (Figure 2 and Figure S2). These mixtures were incubated for 30 min at room temperature (RT), followed by the addition of 10 µL 2x Gel Loading (GL) buffer for subsequent loading on native 15 % PAA RNA gel without urea (20 µL/sample; 6 µL of a 50 bp DNA marker + 14 µL 1x GL). The gel was run at 100-120 V for 2-3 h, concomitantly stained with ethidium bromide for 15 min and imaged on Geldoc (Isogen Life Science B.V., De Meern, the Netherlands).

DNA-PTO: 10mer phosphorothioate-modified DNA antisense oligomer, sequence CTCATACTCT, targeting acpP (antisense dC*dT*dC*dA*dT*dA*dC*dT*dC*dT)
Hybridization to target RNA (band shift): did not interact with the target mRNA

From article doi:10.1101/2023.07.11.548539v1, “A side-by-side comparison of peptide-delivered antisense antibiotics employing different nucleotide mimics” (bioRxiv, 2023)
